Laboratory results published in patent US20230321074A1, “USE OF CHIAURANIB IN COMBINATION WITH IMMUNE CHECKPOINT INHIBITOR IN ANTITUMOR THERAPY” (SHENZHEN CHIPSCREEN BIOSCIENCES, CO., LTD., priority 2020, published 2023).
Several values for one entry are separate records, joined by “and”; a condition that tells them apart may be missing. Equal entries are not always repeated. Entries after “also recorded” stand apart in the source; their conditions may differ.

Experiments:
[1] = test system: MC38-hPD-L1 colon cancer cells; assay: Efficacy on B-hPD-1/hPD-L1 humanized mouse MC38-hPD-L1 colon cancer model; format: in vivo; conditions: for inhibitory effect on growth of MC38-hPD-L1 subcutaneously transplanted tumors (experiment summary): at test doses: chiauranib 2.5 mg/kg; for inhibitory effect on growth of MC38-hPD-L1 subcutaneously transplanted tumors (experiment summary) / inhibitory effect on growth of MC38-hPD-L1 subcutaneously transplanted tumors (tumor volume) / inhibitory effect on growth of MC38-hPD-L1 subcutaneously transplanted tumors (tumor weight): reference PD-L1 antibody 1 mg/kg and 3 mg/kg; for Tumor volume (mm^3) before administration: baseline; for Tumor volume (mm^3) before administration / Tumor volume (mm^3) Day 27 of administration in groups / Tumor weight: mean ± standard error; for inhibitory effect on growth of MC38-hPD-L1 subcutaneously transplanted tumors (tumor volume): day 27, P<0.05 vs control; for inhibitory effect on growth of MC38-hPD-L1 subcutaneously transplanted tumors (tumor volume) / inhibitory effect on growth of MC38-hPD-L1 subcutaneously transplanted tumors (tumor weight): chiauranib 2.5 mg/kg; for inhibitory effect on growth of MC38-hPD-L1 subcutaneously transplanted tumors (tumor weight) / Tumor weight: end of experiment; for inhibitory effect on growth of MC38-hPD-L1 subcutaneously transplanted tumors (tumor weight): P<0.05 vs control; for Tumor weight / TGITV (%) / TGITW (%): day 27; for TGITV (%): tumor inhibition rate by tumor volume; for TGITW (%): tumor weight inhibition
Procedure: Mouse colon cancer MC38 cells were purchased from Shunran Biology, cultured in an incubator under 5% CO2 at 37° C., and a medium was Dulbecco's Modified Eagle's Medium containing 10% inactivated fetal bovine serum. Biocytogen carried out genetic modification on the MC38 cells to enable the MC38 cells to overexpress human PD-L1, and knocked out mouse PD-L1, and the cells were named MC38-hPD-L1 cells. A reference PD-L1 antibody used in the experiment was constructed and produced by the in-house laboratory according to a sequence of the marketed antibody drug MPDL3280A.
(§1) A certain number of cells were cultured and collected, the MC38-hPD-L1 cells resuspended in PBS were subcutaneously inoculated into B-hPD-1/hPD-L1 humanized mice on the right side at a concentration of 5×10^5 cells/0.1 mL and a dose of 0.1 mL/mouse. After an average tumor volume reached about 104 mm^3, appropriate mice were selected according to tumor volume and body weight, and uniformly divided into 6 experimental groups, 8 mice per group, and administration was carried out on the day of grouping.
Results were recorded, tumor inhibition rates (TGITV) were calculated, and statistical analysis between groups was carried out according to tumor volume.

[2] = Body weight and tolerability in B-hPD-1/hPD-L1 humanized mice transplanted with MC38-hPD-L1; format: in vivo, mouse; conditions: for Body weight (g) before administration / Body weight change (g) Day 27 of administration / Body weight (g) Day 27 of administration in groups: MC38-hPD-L1 model; for Body weight (g) before administration: baseline; for Body weight (g) before administration / Body weight (g) Day 27 of administration in groups: mean ± standard error; for toxic side effects on animals / safety: at test doses: chiauranib 2.5 mg/kg, reference PD-L1 antibody 1 mg/kg and 3 mg/kg
Procedure: as §1

[3] = test system: colonic cancer cell line CT-26; assay: Efficacy on tumor Balb/c mouse models inoculated with colonic cancer cell line CT-26 (tumor volume); format: in vivo; conditions: CT-26 in Balb/c mice; chiauranib 20 mg/kg intragastric once a day; PD-1 antibody 10 mg/kg i.p. twice a week; vs solvent control
Procedure: A large number of CT-26 cells were cultured and kept in a logarithmic growth state. After the number of cells reached a required level, the cells were digested and collected by trypsin, thoroughly washed twice with a large amount of PBS to remove trypsin and serum components, centrifuged at room temperature at 800 rpm for 10 min, and a supernatant was discarded. The cells were resuspended in DMEM without FBS, and the cell concentration was adjusted to 5×10^6 cells/mL.
Under sterile conditions, the cell suspension was injected subcutaneously into the back of Balb/c mice at 100 μL/injection, one injection per mouse. […]
(§2) 8 days after cell inoculation, tumors grew to an average volume of about 100 mm^3, and the tumor-bearing mice were randomly divided into four groups (9 mice per group), that is, a solvent control group, a chiauranib group (20 mg/kg, intragastric administration, once a day), a PD-1 antibody group (10 mg/kg, intraperitoneal injection, twice a week), and a chiauranib and PD-1 antibody combined administration group, marked, raised in separate cages, administered daily in groups, and observed for tumor formation. The longest diameter (length) and the widest diameter (width) perpendicular to the longest diameter of the tumor was measured by using a vernier caliper every 2 days, and the tumor volume was calculated according to a formula: TS=length×(width)^2/2, and recorded. […]

[4] = test system: spleen lymphocyte subsets CD4 and CD8; assay: Proportions of spleen lymphocyte subsets in CT-26 tumor-bearing mice (flow cytometry); format: in vivo, mouse; conditions: CT-26 tumor-bearing Balb/c mice; chiauranib 20 mg/kg intragastric once a day; PD-1 antibody 10 mg/kg i.p. twice a week; after last administration on 14th day
Procedure: as §2, with “recorded. The mice were subjected to intragastric administration once a day regularly, and after the last administration on the 14th day, the mice were sacrificed to take the spleens and make a single cell suspension. 1×10^6 spleen cells were taken and stained with fluorescein labelled anti-CD4 and CD8 antibodies (1:200) at 4° C. for 30 min. After being washed, the cells were resuspended in PBS, and detected by using a flow cytometer FACSCanto II.” for “recorded.”

[5] = test system: mouse liver cancer H22 cells; assay: Efficacy on female BALB/c mouse models subcutaneously transplanted with mouse liver cancer H22 cell line; format: in vivo
Procedure: Mouse liver cancer H22 cells (purchased from CCTCC; cell No. TC-00011) were cultured in an RPMI-1640 medium (purchased from Gibco) containing 10% fetal bovine serum. H22 cells in exponential growth phase were collected, resuspended in PBS to an appropriate concentration, and subcutaneously inoculated into mice. Female mice were subcutaneously inoculated with 1×10^6 H22 cells on the right front side. After tumors grew to an average volume of 104 mm^3, the mice were randomly grouped (see Table 1) according to the tumor size, administration was carried out on the day of grouping, and the day of inoculation of tumor cells was defined as day 0.
On the 19th day of the experiment (day 15 of administration in groups), an average tumor volume of the solvent control group was measured to be 2060.99 mm^3, the experiment was completed, photos of the tumor-bearing mice were taken, the tumors were taken out and weighed, and photos of the tumors were taken. A formula for calculating tumor volume: tumor volume (mm^3)=1/2×(a×b^2) (where, a represents a long diameter, and b represents a short diameter).

[6] = Body weight, deaths and tolerability in H22 tumor-bearing BALB/c mice; format: in vivo; conditions: H22 model
[7] = cited from earlier work
[8] = groups G2, G3, G5 (chiauranib 2.5 mg/kg; Reference PD-L1 antibody 1 mg/kg)
[9] = chiauranib 2.5 mg/kg p.o. QD, Reference PD-L1 antibody 1 mg/kg i.p. Q3D
[10] = chiauranib 5 mg/kg p.o. QD, mouse PD-1 antibody 5 mg/kg i.p. BIW
[11] = Reference PD-L1 antibody 3 mg/kg i.p. Q3D, chiauranib 2.5 mg/kg p.o. QD in the combination
[12] = groups G4, G6 (Reference PD-L1 antibody 3 mg/kg; chiauranib 2.5 mg/kg in the combination)

COc1ccc2c(Oc3ccc4c(C(=O)Nc5ccccc5N)cccc4c3)ccnc2c1 [chiauranib, Chiauranib]
inhibitory effect on growth of MC38-hPD-L1 subcutaneously transplanted tumors (experiment summary) [1]: significant inhibitory effects | Tumor volume (mm^3) before administration [1, 8]: 104 ± 4 mm^3 | Tumor volume (mm^3) Day 27 of administration in groups [1, 9]: 1021 ± 158 mm^3 | inhibitory effect on growth of MC38-hPD-L1 subcutaneously transplanted tumors (tumor volume) [1]: significant inhibitory effects | inhibitory effect on growth of MC38-hPD-L1 subcutaneously transplanted tumors (tumor weight) [1]: significant inhibitory effects | Tumor weight [1, 9]: 0.837 ± 0.108 g | TGITV (%) [1, 9]: 58.6% | TGITW (%) [1, 9]: 61.7% | Body weight (g) before administration [2, 8]: 21.1 ± 0.3 g | Body weight change (g) Day 27 of administration [2, 9]: +3.1 g | Body weight (g) Day 27 of administration in groups [2, 9]: 24.2 ± 0.6 g | toxic side effects on animals / safety [2]: do not produce toxic side effects to animals; also recorded: do not produce toxic and side effects on animals | relative tumor inhibition rate [3]: 39% | average proportion of spleen lymphocyte subset CD4 [4]: 9.9% | average proportion of spleen lymphocyte subset CD8 [4]: 6.1% | TGI (%) Day 19 (relative tumor inhibition rate) ([5]; (1 - T/C) x 100%, chiauranib 5 mg/kg p.o. QD, mouse PD-1 antibody 5 mg/kg i.p. BIW): 26% | T/C (%) Day 19 ([5]; TRTV/CRTV x 100%, chiauranib 5 mg/kg p.o. QD, mouse PD-1 antibody 5 mg/kg i.p. BIW): 74% | Tumor volume (mm^3) Day 19 ([5]; day 15 of administration, chiauranib 5 mg/kg p.o. QD x 15 days, mouse PD-1 antibody 5 mg/kg i.p. BIW x 5, mean ± standard error): 1527.40 mm^3 and 1527.40 ± 145.56 mm^3 | Tumor volume (mm^3) Day 5 ([5]; day of grouping, baseline before treatment, mean ± standard error): 104.09 ± 2.73 mm^3 | RTV ([5]; relative tumor volume Vt/V0, Day 19, chiauranib 5 mg/kg p.o. QD, mouse PD-1 antibody 5 mg/kg i.p. BIW): 14.51 | Body weight change rate (%) Day 19 [6, 10]: 5.59% | Number of animals of experiment at the beginning/end [6, 10]: 10/10 | Average body weight (g) Day 5 ([6]; day of grouping, baseline, mean ± standard error): 21.3 ± 0.3 g | Average body weight (g) Day 19 ([6]; end of experiment, chiauranib 5 mg/kg p.o. QD, mouse PD-1 antibody 5 mg/kg i.p. BIW, mean ± standard error): 22.4 ± 0.3 g

Reference PD-L1 antibody: constructed and produced by the in-house laboratory according to a sequence of the marketed antibody drug MPDL3280A
Tumor volume (mm^3) Day 27 of administration in groups [1, 11]: 1207 ± 195 mm^3 | inhibitory effect on growth of MC38-hPD-L1 subcutaneously transplanted tumors (experiment summary) [1]: significant inhibitory effects | Tumor volume (mm^3) before administration [1, 8]: 104 ± 4 mm^3 | Tumor volume (mm^3) before administration [1, 12]: 104 ± 3 mm^3 | Tumor volume (mm^3) Day 27 of administration in groups [1, 9]: 1469 ± 144 mm^3 | inhibitory effect on growth of MC38-hPD-L1 subcutaneously transplanted tumors (tumor volume) [1]: significant inhibitory effects | inhibitory effect on growth of MC38-hPD-L1 subcutaneously transplanted tumors (tumor weight) [1]: significant inhibitory effects | Tumor weight [1, 11]: 1.182 ± 0.199 g | Tumor weight [1, 9]: 1.316 ± 0.106 g | TGITV (%) [1, 11]: 50.3% | TGITV (%) [1, 9]: 38.5% | TGITW (%) [1, 11]: 45.9% | TGITW (%) [1, 9]: 39.8% | Body weight change (g) Day 27 of administration [2, 11]: +3.7 g | Body weight (g) Day 27 of administration in groups [2, 11]: 25.0 ± 0.5 g | Body weight (g) before administration [2, 8]: 21.6 ± 0.3 g | Body weight (g) before administration [2, 12]: 21.3 ± 0.5 g | Body weight change (g) Day 27 of administration [2, 9]: +3.8 g | Body weight (g) Day 27 of administration in groups [2, 9]: 25.4 ± 0.4 g | toxic side effects on animals / safety [2]: do not produce toxic side effects to animals; also recorded: do not produce toxic and side effects on animals

avelumab+BSC: PD-L1 antibody drug avelumab (Bavencio, Pfizer and Merck KGaA) plus best supportive care
median OS ([7]; patients with advanced UC after platinum-based chemotherapy): 21.4 months | overall survival (OS) hazard ratio [HR] ([7]; vs BSC alone, 95% CI 0.56, 0.86, 1-sided p=0.0005, all enrolled patients): 0.69 | increase of OS ([7]; vs BSC group): more than 7 months
